# Data taken from US8710043B2, “TRPM8 antagonists and their use in treatments” (Amgen Inc., priority 2011, dated 2014).
# Target: T1, human TRPM8 (Homo sapiens, UniProt Q7Z2W7)
# T1 construct: expressed in transfected cells; host or cells: Chinese hamster ovary (CHO) cells, T-REx tetracycline-inducible system, co-transfected with aequorin
# Assay: Luminescence readout assay for measuring intracellular calcium, icilin activation
# Type: cell-based
# Settings: CHO cells expressing human TRPM8, aequorin luminescence, 1 μM icilin activation; read-out: hTRPM8 IC50
# Summary of the method: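 The read-out was luminescence reporting intracellular calcium, recorded by a CCD-based luminometer. Compounds were preincubated for 2.5 min before agonist challenge with 1 μM icilin. Human TRPM8 was expressed in a stable T-REx CHO line, induced with 0.5 μg/mL tetracycline the day before.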
# T1 sequence (Q7Z2W7 whole entry): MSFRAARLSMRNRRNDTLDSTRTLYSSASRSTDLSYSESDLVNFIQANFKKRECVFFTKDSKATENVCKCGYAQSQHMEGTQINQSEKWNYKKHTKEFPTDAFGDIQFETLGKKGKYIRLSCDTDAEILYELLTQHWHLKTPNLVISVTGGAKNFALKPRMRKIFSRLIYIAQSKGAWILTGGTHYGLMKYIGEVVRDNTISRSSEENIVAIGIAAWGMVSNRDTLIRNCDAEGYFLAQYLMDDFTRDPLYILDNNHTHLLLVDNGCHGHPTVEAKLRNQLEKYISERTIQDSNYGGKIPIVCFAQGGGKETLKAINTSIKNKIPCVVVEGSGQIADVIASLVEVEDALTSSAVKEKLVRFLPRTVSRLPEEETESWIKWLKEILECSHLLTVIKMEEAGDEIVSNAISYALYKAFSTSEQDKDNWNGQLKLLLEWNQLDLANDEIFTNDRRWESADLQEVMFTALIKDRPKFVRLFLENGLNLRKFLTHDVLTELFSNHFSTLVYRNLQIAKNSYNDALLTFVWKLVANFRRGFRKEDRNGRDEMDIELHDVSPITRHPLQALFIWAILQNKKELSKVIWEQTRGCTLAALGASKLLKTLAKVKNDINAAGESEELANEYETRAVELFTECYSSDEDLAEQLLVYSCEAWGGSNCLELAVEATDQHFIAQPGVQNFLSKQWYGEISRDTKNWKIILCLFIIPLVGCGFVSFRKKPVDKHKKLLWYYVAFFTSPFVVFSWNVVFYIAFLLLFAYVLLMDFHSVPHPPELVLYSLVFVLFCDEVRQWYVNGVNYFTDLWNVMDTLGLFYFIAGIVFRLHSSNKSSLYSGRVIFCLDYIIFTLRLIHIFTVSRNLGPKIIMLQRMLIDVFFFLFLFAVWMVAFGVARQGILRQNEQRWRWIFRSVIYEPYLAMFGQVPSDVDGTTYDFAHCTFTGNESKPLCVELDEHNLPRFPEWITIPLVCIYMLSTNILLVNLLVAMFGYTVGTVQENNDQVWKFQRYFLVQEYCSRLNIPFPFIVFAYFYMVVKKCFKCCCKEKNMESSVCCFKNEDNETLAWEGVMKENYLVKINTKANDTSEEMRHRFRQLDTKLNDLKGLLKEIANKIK
row,Compound,IC50 [nM]
1,"CCNc1ccc(C(=O)N[C@@H](c2ccc(C(F)(F)F)cc2)c2ncccc2C(F)(F)F)cn1 [Example 263, (S)-6-(Ethylamino)-N-((4-(trifluoromethyl)phenyl)(3-(trifluoromethyl)pyridin-2-yl)methyl)nicotinamide]",133
2,"COc1ncc(C(=O)N[C@@H](c2ccc(C(F)(F)F)cc2)c2ncccc2F)cn1 [Example 264, (S)—N-((3-Fluoropyridin-2-yl)(4-(trifluoromethyl)phenyl)methyl)-2-methoxypyrimidine-5-carboxamide]",253
3,"O=C(N[C@@H](c1ccc(C(F)(F)F)cc1)c1ncccc1C(F)(F)F)c1cnc(O)nc1 [Example 266, (S)-2-Hydroxy-N-((4-(trifluoromethyl)phenyl)(3-(trifluoro-methyl)pyridin-2-yl)methyl)pyrimidine-5-carboxamide]",223
4,"CCCc1cccnc1[C@@H](NC(=O)c1ccc(=O)[nH]c1)c1ccc(C(F)(F)F)cc1 [Example 267, (S)-6-Oxo-N-((3-propylpyridin-2-yl)(4-(trifluoromethyl)-phenyl)methyl)-1,6-dihydropyridine-3-carboxamide]",9.9
5,"C=CCN1C(=O)c2ccc(C(=O)N[C@@H](c3ccc(C(F)(F)F)cc3)c3ncccc3C(F)(F)F)cc2C1=O [Example 268, (S)-2-Allyl-1,3-dioxo-N-((4-(trifluoromethyl)phenyl)(3-(trifluoromethyl)pyridin-2-yl)methyl)isoindoline-5-carboxamide]",156
6,"CCCN1C(=O)c2ccc(C(=O)N[C@@H](c3ccc(C(F)(F)F)cc3)c3ncccc3C(F)(F)F)cc2C1=O [Example 269, (S)-1,3-Dioxo-2-propyl-N-((4-(trifluoromethyl)phenyl)(3-(trifluoromethyl)pyridin-2-yl)methyl)isoindoline-5-carboxamide]",136
7,"CN1C(=O)c2ccc(C(=O)N[C@@H](c3ccc(C(F)(F)F)cc3)c3ncccc3C(F)(F)F)cc2C1=O [Example 270, (S)-2-Methyl-1,3-dioxo-N-((4-(trifluoromethyl)phenyl)(3-(trifluoromethyl)pyridin-2-yl)methyl)isoindoline-5-carboxamide]",19.1
8,"O=C(O)c1ccc(C(=O)N[C@@H](c2ccc(OC(F)(F)F)cc2)c2ncccc2F)nc1 [Example 272, (S)-6-(((3-Fluoropyridin-2-yl)(4-(trifluoromethoxy)phenyl)-methyl)carbamoyl)nicotinic Acid]",11.9
9,"O=C(O)COc1ccc(C(=O)N[C@@H](c2ccc(C(F)(F)F)cc2)c2ncccc2F)nc1 [Example 279, (S)-2-((6-(((3-Fluoropyridin-2-yl)(4-(trifluoromethyl)phenyl)-methyl)carbamoyl)pyridin-3-yl)oxy)acetic Acid]",1810
10,"O=C(CCc1ccccn1)N[C@@H](c1ccc(C(F)(F)F)cc1)c1ncccc1C(F)(F)F [Example 284, (S)-3-(Pyridin-2-yl)-N-((4-(trifluoromethyl)phenyl)(3-(trifluoromethyl)pyridin-2-yl)methyl)propanamide]",346
11,"O=C(N[C@@H](c1ccc(C(F)(F)F)cc1)c1ncccc1C(F)(F)F)c1ccc(C(=O)O)nc1 [Example 285, (S)-5-(((4-(Trifluoromethyl)phenyl)(3-(trifluoromethyl)-pyridin-2-yl)methyl)carbamoyl)picolinic Acid 2,2,2-trifluoroacetate]",2160
12,"O=C(Cc1ccccn1)N[C@@H](c1ccc(OC(F)(F)F)c(F)c1)c1ncccc1F [Example 288, (S)-N-((3-fluoro-4-(trifluoromethoxy)phenyl)(3-fluoropyridin-2-yl)methyl)-2-(pyridin-2-yl)acetamide]",139

# The remaining lines, values ahead:
row,IC50 [nM],Compound
1,114,"CN(C)c1ccc(C(=O)N[C@@H](c2ccc(C(F)(F)F)cc2)c2ncccc2C(F)(F)F)cn1 [Example 262, (S)-6-(Dimethylamino)-N-((4-(trifluoromethyl)phenyl)(3-(trifluoromethyl)pyridin-2-yl)methyl)nicotinamide]"
2,62.2,"O=C(N[C@@H](c1ccc(C(F)(F)F)cc1)c1ncccc1C(F)(F)F)c1ccc2c(c1)C(=O)NC2 [Example 265, (S)-3-oxo-N-((4-(trifluoromethyl)phenyl)(3-(trifluoromethyl)-pyridin-2-yl)methyl)isoindoline-5-carboxamide]"
3,8.9,"O=C(N[C@@H](c1ccc(C(F)(F)F)cc1)c1ncccc1C(F)(F)F)c1ccc2c(c1)CNC2=O [Example 271, (S)-1-Oxo-N-((4-(trifluoromethyl)phenyl)(3-(trifluoromethyl)-pyridin-2-yl)methyl)isoindoline-5-carboxamide]"
4,16.1,"CNC(=O)c1ccc(C(=O)N[C@@H](c2ccc(C(F)(F)F)cc2)c2ncccc2F)nc1 [Example 273, (S)—N^2-((3-Fluoropyridin-2-yl)(4-(trifluoromethyl)phenyl)-methyl)-N^5-methylpyridine-2,5-dicarboxamide 2,2,2-trifluoroacetate]"
5,198,"O=C(N[C@@H](c1ccc(C(F)(F)F)cc1)c1ncccc1C(F)(F)F)c1ccc2c(c1)NCCC2 [Example 274, (S)—N-((4-(Trifluoromethyl)phenyl)(3-(trifluoromethyl)pyridin-2-yl)methyl)-1,2,3,4-tetrahydroquinoline-7-carboxamide]"
6,68.6,"N#Cc1ccc(C(=O)N[C@@H](c2ccc(C(F)(F)F)cc2)c2ncccc2C(F)(F)F)nc1 [Example 275, (S)-5-Cyano-N-((4-(trifluoromethyl)phenyl)(3-(trifluoro-methyl)pyridin-2-yl)methyl)picolinamide]"
7,177,"O=C(N[C@@H](c1ccc(C(F)(F)F)cc1)c1ccccn1)c1ccc2c(c1)NCCC2 [Example 276, (S)—N-(Pyridin-2-yl(4-(trifluoromethyl)phenyl)methyl)-1,2,3,4-tetrahydroquinoline-7-carboxamide]"
8,188,"N#Cc1cc(C(=O)N[C@@H](c2ccc(C(F)(F)F)cc2)c2ncccc2F)c[nH]c1=O [Example 277, (S)-5-Cyano-N-((3-fluoropyridin-2-yl)(4-(trifluoromethyl)-phenyl)methyl)-6-oxo-1,6-dihydropyridine-3-carboxamide]"
9,317,"N#Cc1cccnc1[C@@H](NC(=O)c1ccc2cccnc2c1)c1ccc(C(F)(F)F)cc1 [Example 278, (S)—N-((3-Cyanopyridin-2-yl)(4-(trifluoromethyl)phenyl)-methyl)quinoline-7-carboxamide]"
10,22.1,"O=C(O)c1ccc(C(=O)N[C@@H](c2ccc(C(F)(F)F)cc2)c2ncccc2F)nc1 [Example 280, (S)-6-(((3-Fluoropyridin-2-yl)(4-(trifluoromethyl)phenyl)-methyl)carbamoyl)nicotinic Acid]"
11,21.8,"O=C(O)c1ccc(C(=O)N[C@@H](c2ccc(C(F)(F)F)cc2)c2ncccc2C(F)(F)F)cc1 [Example 283, (S)-4-(((4-(Trifluoromethyl)phenyl)(3-(trifluoromethyl)-pyridin-2-yl)methyl)carbamoyl)benzoic Acid]"
12,1110,"CC(C)(C)c1cccnc1[C@@H](NC(=O)c1ccc2cccnc2c1)c1ccc(C(F)(F)F)cc1 [Example 286, (S)—N-((3-(tert-Butyl)pyridin-2-yl)(4-(trifluoromethyl)phenyl)-methyl)quinoline-7-carboxamide 2,2,2-trifluoroacetate]"
